In patent publication US6228872A, “Neurotrophic diamide and carbamate agents” (Bristol-Myers Squibb Company, priority 1999, dated 2001) one finds inhibition and Ki data, which are given here for 27 compounds.

FKBP12, sequence (P62942 whole entry, species assumed): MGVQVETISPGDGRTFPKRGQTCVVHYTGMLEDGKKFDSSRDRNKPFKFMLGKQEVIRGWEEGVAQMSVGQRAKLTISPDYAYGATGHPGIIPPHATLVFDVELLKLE

One assay deals with FKBP12 (Homo sapiens, UniProt P62942). The experiment in a line: FKBP12 Rotamase Inhibition Assay. Type of assay: biochemical. The conditions noted are these: Table 1; 1 μM (values marked *); read-out: % inhib. at 1 μM*. The procedure:
FKBP12 Rotamase Inhibition Assay
The rotamase activity of FKBP-12 was measured by an adaptation of the assay described by Kofron et al. (Biochemistry, 30, pp. 6127-6134 (1991)). The assay was carried out at 4° C. with 1 mg chymotrypsin/mL of assay with succinyl-Ala-Leu-Pro-Phe-p-nitroanilide as the substrate. Chymotrypsin rapidly hydrolyzes the peptide bond on the C-terminal side of the Phe of the trans form of the peptide and releases the chromogenic p-nitroaniline. The rate of the reaction is controlled by the rate of conversion of the cis form of the peptide to the trans-form, the reaction catalyzed by FKBP12. The apparent Ki values for inhibition of the rotamase activity were determined by measuring decreases in the first order rate constant of the reaction catalyzed by FKBP12 as a function of the concentrations of the compounds described herein. Ki is the concentration of the compound that causes 50 percent inhibition of rotamase activity which is indicative of neurite outgrowth activity.
For `COc1cc(C(F)(F)C(=O)N2CCC[C@H]2COC(=O)N(Cc2ccccc2)Cc2ccccc2)cc(OC)c1OC` [Example 24, N-(3,4,5-Trimethoxyphenyl)-difluoroacetyl-L-pyrrolidinylmethyl-[N',N'-dibenzylamino]carbamate], the inhibition at 1 µM is 34%.

The assay is the same for the next values; noted with them: Table 1; 10 μM; read-out: % inhib. at 10 μM.
Consider `COc1cc(C(=O)C(=O)N2CCC[C@H]2COC(=O)NCCc2ccccc2)cc(OC)c1OC` [Example 9, N-(3,4,5-Trimethoxyphenyl)oxalyl-L-pyrrolidinylmethyl-[N'-2-phenylethylamino]carbamate], for which the inhibition at 10 µM was determined as 11%.
On the same count and under the same terms, the same measure for `COc1cc(C(=O)C(=O)N2CCC[C@H]2COC(=O)NCc2cccnc2)cc(OC)c1OC` [Example 8, N-(3,4,5-Trimethoxyphenyl)oxalyl-L-pyrrolidinylmethyl-[N'-3-pyridylmethylamino]carbamate]: 11%; for `CC(C)(C)C(=O)C(=O)N1CCC[C@H]1COC(=O)N(Cc1ccccc1)Cc1ccccc1` [Example 2, N-Trimethylpyruvyl-L-pyrrolidinylmethyl-[N',N'-dibenzylamino]carbamate]: 27%.
The same measure, in the same setting: the figure for `CC(C)(C)C(=O)C(=O)N1CCC[C@H]1COC(=O)NCCc1ccccc1` [Example 5, N-Trimethylpyruvyl-L-pyrrolidinylmethyl-[N'-2-phenylethylamino]carbamate] is 0%.
Regarding `CC(C)(C)C(=O)C(=O)N1CCC[C@H]1COC(=O)NCc1cccnc1` [Example 4, N-Trimethylpyruvyl-L-pyrrolidinylmethyl-[N'-3-pyridylmethylamino]carbamate], the inhibition at 10 µM is 12%.

Still in this assay, the particulars now being: Table 2; 1 μM (values marked *); read-out: % inhib. at 1 μM*.
Turning to `COc1cc(C(=O)C(=O)N2CCC[C@H]2COC(=O)N(CCCCc2cccnc2)CCCc2ccccc2)cc(OC)c1OC` [Example 14, N-(3,4,5-Trimetboxyphenyl)oxalyl-L-pyrrolidinylmethyl-[N',N'-4-(3-pyridyl)butyl-3-phenylpropylamino]carbamate], the inhibition at 1 µM came out at 54%.
The same measure, in the same setting: the figure for `COc1cc(C(=O)C(=O)N2CCC[C@H]2COC(=O)N(CCCCc2ccccc2)CCCCc2cccnc2)cc(OC)c1OC` [Example 10, N-(3,4,5-Trimethoxyphenyl)oxalyl-L-pyrrolidinylmethyl-[N',N'-4-(3-pyridyl)butyl-4-phenylbutylamino]carbamate] is 52%; for `COc1cc(C(=O)C(=O)N2CCC[C@H]2COC(=O)N(CCCCc2cccnc2)Cc2ccccc2)cc(OC)c1OC` [Example 16, N-(3,4,5-Trimethoxyphenyl)oxalyl-L-pyrrolidinylmethyl-[N',N'-4-(^3-pyridyl)butyl-benzylamino]carbamate] it is 18%.
In the case of `COc1cc(C(F)(F)C(=O)N2CCCCC2COC(=O)N(CCCc2cccnc2)CCc2ccccc2)cc(OC)c1OC` (racemic) [Example 42, N-(3,4,5-Trimethoxyphenyl)-difluoroacetyl-(±)-piperidinylmethyl-[N',N'-3-(3-pyridyl)propyl-2-phenylethylamino]carbamate], the inhibition at 1 µM turned out to be 1%.
Still for that read-out and setting: the same measure for `COc1cc(C(F)(F)C(=O)N2CCC[C@H]2COC(=O)N(CCCCc2cccnc2)Cc2ccccc2)cc(OC)c1OC` [Example 31, N-(3,4,5-Trimethoxyphenyl)-difluoroacetyl-L-pyrrolidinylmethyl-[N',N'-4-(3-pyridyl)butyl-benzylamino]carbamate]: 63%; for `COc1cc(C(F)(F)C(=O)N2CCC[C@H]2COC(=O)N(CCCCc2ccccc2)CCCCc2cccnc2)cc(OC)c1OC` [Example 22, N-(3,4,5-Trimethoxyphenyl)-difluoroacetyl-L-pyrrolidinylmethyl-[N',N'-4-(3-pyridyl)butyl-4-phenylbutylamino]carbamate]: 83%.

The same assay, now with this note: Table 2; 10 μM; read-out: % inhib. at 10 μM.
As for `COc1cc(C(F)(F)C(=O)N2CCC[C@H]2COC(=O)N(CCCc2cccnc2)Cc2ccccc2)cc(OC)c1OC` [Example 28, N-(3,4,5-Trimethoxyphenyl)-difluoroacetyl-L-pyrrolidinylmethyl-[N',N'-3-(3-pyridyl)propyl-benzylamino]carbamate], the inhibition at 10 µM came to 99%.
For the compound `COc1cc(C(F)(F)C(=O)N2CCC[C@H]2COC(=O)N(CCCc2ccccc2)CCCc2cccnc2)cc(OC)c1OC` [Example 23, N-(3,4,5-Trimethoxyphenyl)-difluoroacetyl-L-pyrrolidinylmethyl-[N',N'-3-(3-pyridyl)propyl-3-phenylpropylamino]carbamate], the inhibition at 10 µM turned out to be 98%.
Take `COc1cc(C(=O)C(=O)N2CCC[C@H]2COC(=O)N(CCCc2cccnc2)Cc2ccccc2)cc(OC)c1OC` [Example 13, N-(3,4,5-Trimethoxyphenyl)oxalyl-L-pyrrolidinylmethyl-[N',N'-3-(3-pyridyl)propyl-benzylamino]carbamate]: the inhibition at 10 µM is 79%.
Still for that read-out and setting: the same measure for `COc1cc(C(F)(F)C(=O)N2CCC[C@H]2COC(=O)N(CCCCc2ccccc2)CCCc2cccnc2)cc(OC)c1OC` [Example 26, N-(3,4,5-Trimethoxyphenyl)-difluoroacetyl-L-pyrrolidinylmethyl-[N',N'-3-(3-pyridyl)propyl-4-phenylbutylamino]carbamate]: 99%.

The assay is the same for the next values; noted with them: Table 2; apparent Ki, 4° C., substrate succinyl-Ala-Leu-Pro-Phe-p-nitroanilide.
For `COc1cc(C(F)(F)C(=O)N2CCC[C@H]2COC(=O)N(CCCc2cccnc2)Cc2ccccc2)cc(OC)c1OC` [Example 28, N-(3,4,5-Trimethoxyphenyl)-difluoroacetyl-L-pyrrolidinylmethyl-[N',N'-3-(3-pyridyl)propyl-benzylamino]carbamate], the Ki came out at 0.577 µM.
As to `COc1cc(C(F)(F)C(=O)N2CCC[C@H]2COC(=O)N(CCCc2ccccc2)CCCc2cccnc2)cc(OC)c1OC` [Example 23, N-(3,4,5-Trimethoxyphenyl)-difluoroacetyl-L-pyrrolidinylmethyl-[N',N'-3-(3-pyridyl)propyl-3-phenylpropylamino]carbamate], the Ki was found to be 0.113 µM.
Still for that read-out and setting: the figure for `COc1cc(C(F)(F)C(=O)N2CCC[C@H]2COC(=O)N(CCCCc2cccnc2)Cc2ccccc2)cc(OC)c1OC` [Example 31, N-(3,4,5-Trimethoxyphenyl)-difluoroacetyl-L-pyrrolidinylmethyl-[N',N'-4-(3-pyridyl)butyl-benzylamino]carbamate] is 0.686 µM; for `COc1cc(C(F)(F)C(=O)N2CCC[C@H]2COC(=O)N(CCCCc2ccccc2)CCCCc2cccnc2)cc(OC)c1OC` [Example 22, N-(3,4,5-Trimethoxyphenyl)-difluoroacetyl-L-pyrrolidinylmethyl-[N',N'-4-(3-pyridyl)butyl-4-phenylbutylamino]carbamate] it is 0.271 µM.
On the same count and under the same terms, the same measure for `COc1cc(C(F)(F)C(=O)N2CCC[C@H]2COC(=O)N(CCCCc2ccccc2)CCCc2cccnc2)cc(OC)c1OC` [Example 26, N-(3,4,5-Trimethoxyphenyl)-difluoroacetyl-L-pyrrolidinylmethyl-[N',N'-3-(3-pyridyl)propyl-4-phenylbutylamino]carbamate]: 0.158 µM.

The assay is the same for the next values; noted with them: Table 3; 1 μM; read-out: % rotamase inhib. at 1 μM.
For `COc1ccc(CCCN(CCCc2cccnc2)C(=O)OC[C@@H]2CCCN2C(=O)C(F)(F)c2cc(OC)c(OC)c(OC)c2)cc1` [Example 38, N-(3,4,5-Trimethoxyphenyl)-difluoroacetyl-L-pyrrolidinylmethyl-[N',N'-3-(3-pyridyl)propyl-3-(4-methoxyphenyl)propylamino]carbamate], the inhibition at 1 µM stood at 95%.
In the case of `COc1cc(C(F)(F)C(=O)N2CCC[C@H]2COC(=O)N(CCCc2ccc(C(=O)OCc3ccccc3)cc2)CCCc2cccnc2)cc(OC)c1OC` [Example 36, N-(3,4,5-Trimethoxyphenyl)-difluoroacetyl-L-pyrrolidinylmethyl-[N',N'-3-(3-pyridyl)propyl-3-(4-benzyloxycarbonylphenyl)propylamino]carbamate], the inhibition at 1 µM is 77%.
Turning to `COc1cccc(CCCN(CCCc2cccnc2)C(=O)OC[C@@H]2CCCN2C(=O)C(F)(F)c2cc(OC)c(OC)c(OC)c2)c1` [Example 37, N-(3,4,5-Trimethoxyphenyl)-difluoroacetyl-L-pyrrolidinylmethyl-[N',N'-3-(3-pyridyl)propyl-3-(3-methoxyphenyl)propylamino]carbamate], the inhibition at 1 µM is 93%.
On the same count and under the same terms, the figure for `COc1cc(CCCN(CCCc2cccnc2)C(=O)OC[C@@H]2CCCN2C(=O)C(F)(F)c2cc(OC)c(OC)c(OC)c2)cc(OC)c1OC` [Example 39, N-(3,4,5-Trimethoxyphenyl)-difluoroacetyl-L-pyrrolidinylmethyl-[N',N'-3-(3-pyridyl)propyl-3-(3,4,5-trimethoxyphenyl)propylamino]carbamate] is 92%.
Same read-out and setting: the same measure for `COc1ccc(CCCCN(CCCc2cccnc2)C(=O)OC[C@@H]2CCCN2C(=O)C(F)(F)c2cc(OC)c(OC)c(OC)c2)cc1OC` [Example 40, N-(3,4,5-Trimethoxyphenyl)-difluoroacetyl-L-pyrrolidinylmethyl-[N',N'-3-(3-pyridyl)propyl-4-(3,4-dimethoxyphenyl)butylamino]carbamate]: 98%; for `COc1cccc(CCCN(CCCc2cccnc2)C(=O)OC[C@@H]2CCCN2C(=O)C(=O)c2cc(OC)c(OC)c(OC)c2)c1` [Example 17, N-(3,4,5-Trimethoxyphenyl)oxalyl-L-pyrrolidinylmethyl-[N',N'-3-(3-pyridyl)propyl-3-(3-methoxyphenyl)propylamino]carbamate]: 75%.
On the same count and under the same terms, the figure for `COc1ccc(CCN(CCCc2cccnc2)C(=O)OC[C@@H]2CCCN2C(=O)C(F)(F)c2cc(OC)c(OC)c(OC)c2)cc1OC` [Example 33] is 96%.
As to `COc1cc(CCCN(CCCc2cccnc2)C(=O)OC[C@@H]2CCCN2C(=O)C(=O)c2cc(OC)c(OC)c(OC)c2)cc(OC)c1OC` [Example 18, N-(3,4,5-Trimethoxyphenyl)oxalyl-L-pyrrolidinylmethyl-[N',N'-3-(3-pyridyl)propyl-3-(3,4,5-trimethoxyphenyl)propylamino]carbamate], the inhibition at 1 µM was found to be 68%.
Same read-out and setting: the same measure for `COc1cc(C(F)(F)C(=O)N2CCC[C@H]2COC(=O)N(CCCc2cccnc2)CCc2cccc(C(F)(F)F)c2)cc(OC)c1OC` [Example 34, N-(3,4,5-Trimethoxyphenyl)-difluoroacetyl-L-pyrrolidinylmethyl-[N',N'-3-(3-pyridyl)propyl-2-(3-trifluoromethylphenyl)ethylamino]carbamate]: 96%.

The same assay, now with this note: Table 4; 1 μM; read-out: % rotamase inhib. at 1 μM.
Regarding `COc1cc(C(=O)C(=O)N2CCC[C@H]2CCC(=O)N(CCCc2ccccc2)CCCc2cccnc2)cc(OC)c1OC` [Example 21, N,N-(3-Phenylpropyl)-3-(3-pyridyl)propyl-2-[(S)-N'-(3,4,5-trimethoxyphenyl)oxalyl-2-pyrrolidinyl]propionamide], the inhibition at 1 µM was 1%.
Same read-out and setting: the same measure for `COc1cc(C(F)(F)C(=O)N2CCCC[C@H]2CCC(=O)N(CCCc2ccccc2)CCCc2cccnc2)cc(OC)c1OC` [Example 44, N,N-(3-Phenylpropyl)-3-(3-pyridyl)propyl-2-[(S)-N'-(3,4,5-Trimethoxyphenyl)-difluoroacetyl-2-piperidinyl]propionamide]: 0%.
